Source: US4371545A, “Isopropyl amine compounds” (Dolorgiet Beteiligungs GmbH, priority 1978, dated 1983)

Tests used:
[1] = test system: isoprenalin-induced tachycardia; experiment: Inhibition of isoprenalin-induced tachycardia in anaesthetized cats; assay type: in vivo, cat; details: for ED50: Felis catus, iv, graphic extrapolation on dose-effect curve, read-out: ED50 (reduction of isoprenalin-induced tachycardia by 50%)
Method: A comparative screening test was conducted on anaestetized cats suffering from isoprenalin-induced tachycardia.
(§1) To provide an informative determination of the ED50 of the test preparation on isoprenalin-induced tachycardia of anaesthetized cats as well as qualitative determination of the characteristic effect of the preparation on blood pressure and heart beat frequency in resting position.
3.2 Test animals: male and female cats,
weighing 1.6 to 3.2 kg, un-
(§2) Anaesthetic: hexobarbital (Evipan-Na),
Respiration: spontaneous after tracheo-
femoralis for injection of
the test preparations; ca-
(§3) theterization of A. femo-
(§4) ralis for measuring arterial
(§5) blood pressure; blood coagu-
sodium heparinate, 600 units
(§6) phase and mean blood press-
(§7) ure, using a Statham press-
(§8) ure gauge and an HSE elec-
(§9) tromanometer; heart frequency
(§10) by means of the pulse wave
(§11) interval, using an HSE-EKA
(§12) sphygmograph or HSE frequency
3.3.2 Administration of the
Isoprenalin: i.v. injection; dose 0.3 to
1 μg/kg; volume administer-
ed: 0.1 ml/kg; intervals bet-
ween injections; 10 min.
i.v. injections, each 4 min.
prior to the next isoprenalin
injection; dosage range: 10
to 100 μg/kg and, respect.,
injection time: 10 sec.
3.3.3 Criteria determining
percentage reduction in iso-
prenalin-induced tachycardia;
measured at maximum efficien-
cy (4 min. after injection).
ED50 is determined by graph-
ic extrapolation on the
curves showing the effect-
iveness of the dose admini-
stered. ED50 means the dose
(μg/kg i.v.) required for
reducing tachycardia by
50% as compared to the ori-
Table 1 informs on the results of the above experiments. The quantitative criteria in this table are: reduction of isoprenalin-induced tachycardia in percent; ED50 determined by graphic extrapolation on the curve showing the effectiveness of the respective dose; and relative activity which may be calculated as quotient from the ED50 (μg/kg) of propranolol and the ED50 of the test preparation.

[2] = Acute toxicity (Litchfield and Wilcoxon); details: in vivo
Method: The acute toxicity of the inventive compound is determined by the method of Litchfield and Wilcoxon (J. Pharmacol. exp. Therap., 96 (1949), 99).

[3] = test system: isoprenalin-induced drop in arterial blood pressure; experiment: Reduction of isoprenalin-induced drop in arterial blood pressure in anaesthetized cats; assay type: in vivo, cat; details: for m BP Isopr. (reduction in mean, isoprenalin-induced drop in arterial blood pressure): i.v., qualitative, 10 to 100 ug/kg; for isoprenalin-induced drop in arterial blood pressure: summary in words
β-adrenergic = β-adrenergic blocking activity in mammals; assay type: in vivo; details: mammals such as mice, rats and cats
Excerpt: It is also to be expected that the above compound will have similar effects when administered to humans.

[4] = test system: heart beat frequency in resting position; experiment: Effect on heart beat frequency in resting position in anaesthetized cats; assay type: in vivo, cat; details: for HR norm (bradycardial effect, heart beat frequency in resting position): anaesthetized cats, i.v., qualitative, 10 to 100 ug/kg
Excerpt: as §1, §2, §9, §10, §11, §12
(§13) The remaining data in the table refer to the characteristic effect of the test preparation on the heart beat frequency in resting position, arterial blood pressure in resting position, and reduction of isoprenalin-induced drop in blood pressure; the respective data are more of qualitative nature.

[5] = test system: mean arterial blood pressure in resting position; experiment: Effect on mean arterial blood pressure in resting position in anaesthetized cats; assay type: in vivo, cat; details: i.v., qualitative, 10 to 100 ug/kg
Excerpt: as §1, §2, §3, §4, §5, §6, §7, §8, §9, §13

| SMILES | ED50 ([1]; anaesthetized cats) | Rel. Activity (ED50 of propranolol / ED50 of test preparation) ([1]; based on ED50 of propranolol (=1)) | beta-blocking activity in the tests on isoprenalin-induced tachycardia ([1]; compared to propranolol, anaesthetized cats) | LD50 ([2]; ip, mouse, female and male, in each case 10 female and male mice) | LD50 ([2]; iv, mouse, female and male, in each case 10 female and male mice) | LD50 ([2]; po, mouse, female and male, in each case 10 female and male mice) | LD50 ([2]; rat, ip, female and male) | LD50 ([2]; rat, iv, female) | LD50 ([2]; rat, iv, male) | LD50 ([2]; rat, po, female and male) | m BP Isopr. (reduction in mean, isoprenalin-induced drop in arterial blood pressure) [3] | isoprenalin-induced drop in arterial blood pressure [3] | β-adrenergic blocking activity (β-adrenergic) | HR norm (bradycardial effect, heart beat frequency in resting position) [4] | reduction of frequency of heart beat in resting position ([4]; depending on the original position and the dose administered) | m BP norm (effectiveness in lowering blood pressure, mean arterial pressure in resting position) [5] |
| --- | --- | --- | --- | --- | --- | --- | --- | --- | --- | --- | --- | --- | --- | --- | --- | --- |
| Cc1ccc([N+](=O)[O-])c(OCC(O)CNC(C)C)c1.Cl (centres unmarked) [Compound of the invention, 1-(5-methyl-2-nitrophenoxy)-2-hydroxy-3-isopropylaminopropane-hydrochloride] | 0.021 mg/kg | 2.3 | good beta-blocking activity | 250 mg/kg | 105 mg/kg | 1280 mg/kg | 192 mg/kg | 68.9 mg/kg | 80 mg/kg | 1120 mg/kg | + - +++R and d.d. | reliably reduced and blocked | demonstrated | + - +++ and d.d. | effectively reduced |  |
| CC(C)NCC(O)COc1cccc2ccccc12 (centres unmarked) [Propranolol, reference compound] | 0.048 mg/kg |  |  |  |  |  |  |  |  |  | + - +++R and d.d. | reliably reduced and blocked |  | + - +++ and d.d. |  | + - ++ and d.d. |
